Source: patent publication EP0255420B1, “Antiviral agent for inhibiting growth of virus of acquired immune deficiency syndrome (AIDS)” (priority 1986, dated 1988)
Values after ≈ are worked out from the molar mass of the structure shown. Like-named read-outs stand apart in the source and are kept apart here.

Tests used:
reverse transcriptase = reverse transcriptase (Human immunodeficiency virus type 1 group M subtype B, UniProt P04585); assay: Reverse transcriptase assay with disrupted HIV; type: biochemical; design: made in house; host or cells: virions from culture supernatants of HIV-producing Molt-4 cells (Molt-4/HIV), disrupted with Triton X-100
Protocol: Supernatants of Molt-4/HIV were concentrated 100 times by sucrose gradient ultracentrifugation. The viral pellets were disrupted by addition of suspension buffer containing 5 mM Tris-HCI(pH 8.1), 0.5 M KCI, 0.1 mM dithiothreitol and 0.1 % Triton® X-100. The assay for reverse transcriptase activity was performed at 37°C for 1 h with a 10 0 of the disrupted HIV in a final volume of 50 µl containing 50 mM Tris-HCI(pH 8.4), 2 mM dithiothreitol, 100 mM KCI, 10 mM MgCI, 0.01 % Triton X-100. 1 wCi 3H-thymidine triphosphate (57 Ci/m mol.; Amersham, Buckinghanshire, UK) and 50 gg/ml poly(rA)/oligo(dT)(P-L Biochemicals Inc., Milwaukee, Wis). The reaction was stopped with 5% trichloroacetic acid, and precipitates were collected on glass fibre filters and counted in a liquid scintillation counter (Harada et. al; Virology 146, p.272-281,1985b). The assays were carried out in triplicate.

HIV [1] = assay: Number of HIV in culture fluids of infected clone No.8 cells of Molt-4 (MT-4 cell plaque assay system); type: cell-based; conditions: 1 mg/ml
HIV [2] = type: cell-based
Protocol: HIV was obtained from the culture supernatant of Molt-4/HIV. Titer of virus preparation was 6x10^4 plaque forming units/ml. Infection of MT-4 cells and clone No. 8 cells of Molt-4 with HIV was made at a multiplicity of infectin of 0.002.
To evaluate the direct effect of glycyrrhizin on the infection of HIV in MT-4 cells, plaque assay using agarose overlay medium with various concentrations of glycyrrhizin was performed. Briefly, in order to fasten MT-4 cells onto culture vessels, 35 mm polystyrene tissue culture dishes were coated with poly-L-lysine (Sigma Chemical Co., St. Louis,Mo) One and half milliliters of 1.50 x 10^6/ml MT-4 cells were dropped onto each poly-L-lysine-coated dish and incubator for 1 hour at room temperature. The dishes were gently washed with phosphate buffered saline to remove unbound cells, 100 p.1 of appropriate diluted virus preparation was slowly added and incubated for 1 hour at room temperature for virus adsorption. After adsorption, 1 ml of the agarose overlay medium consisting of RPMI 1640 medium with 10 % fetal calf serum, antibiotics and 0.6 % agarose (Sea plaque Agarose, Marine Colloid Corp., Rockland, Me) was poured into each dish. The dishes were incubated in a C02 incubator at 37°C for 3 days and 1 ml of agarose overlay medium containing neutral red was added. The dishes were incubated 3 more days and visible plaque were counted. All experiments were carried out in triplicate.

HIV [3] = assay: HIV-specific antigen expression in HIV infected clone No.8 cells of Molt-4 (immunofluorescence); type: cell-based; conditions: 1 mg/ml
[4] = tested on: normal pheripleral blood monouclear cells; assay: 3H-thymidine uptake in normal peripheral blood mononuclear cells (lectin-induced blast formation); type: cell-based; conditions: normal lymphocytes, 3 days
Protocol: (§1) MT-4 cells were adjusted to 3x10^5 cells/ml in fresh medium and cultured with various concentrations of glycyrrhizin in a 96-flat bottom well microtiter plate for 3 days. 10^6 pheripleral blood monouclear cells were cultured with 1 wg/ml of poly clonal mitogen PHA or concanavalin A various concentrations of glycyrrhizin for 3 days. Cells were incubated with either 1 µCi/well of ^3H-thymidine (20 Ci/m mol.; New Engl.Nuclear, Boston, MA), for the last 18 hours. The cells were harvested on a glassfiber filter paper and counted in a liquid scintillation counter. All experiments were carried out in triplicate.

Varicella-Zoster virus = conditions: human embryonic fibroblast; cited from earlier work
HIV particles = assay: Inactivation of HIV particles by glycyrrhizin (pre-incubation, then plaque assay); type: cell-based; conditions: even at 2 mg/ml, 60 min at 37°C
Protocol: 0.5 ml of HIV containing plaque forming units was mixed with 0.5 ml of various concentrations of glycyrrhizin in the test tubes and incubated at 37°C.
After 60 min. incubation 0.1 ml of each mixture was diluted with 19.9 ml of culture medium, and 0.1 ml of the […] diluted virus preparation was added. After adsorption, 1 ml of the agarose overlay medium consisting of RPMI-1640 medium with 10 % fetal calf serum, antibiotics and 0.6 % agarose was poured in. The maximum concentration of the diluted glycyrrhizin in plaque assay medium was 0.01 mg/ml, and this concentration itself reduced about 10 % of HIV induced plaque forming activity in MT-4 cells.

HIV [5] = assay: Cytopathic effect in HIV infected clone No.8 cells of Molt-4 (viable cells, viability); type: cell-based; conditions: 1 mg/ml
HIV [6] = assay: Assay for HIV induced cytopathic effects in HIV infected MT-4 cells (viable cells, trypan blue exclusion); type: cell-based; conditions: day 3, multiplicity of infection 0.002
MT-4 cells [7] = assay: 3H-thymidine uptake in MT-4 cells (DNA synthesis); type: cell-based; conditions: 3 days
Protocol: as §1

[8] = mouse, in vivo, ip
HIV [9] = assay: Assay for HIV specific antigen expression in HIV infected MT-4 cells (indirect immunofluorescence); type: cell-based; conditions: for percentage of IF-positive cells: day 3 after infection
Acute toxicity, rat = type: in vivo; conditions: Oral administration (rat)
MT-4 cells [10] = assay: Growth of MT-4 cells not exposed to virus (viable cell count); type: cell-based; conditions: 2 mg/ml
From the text: • Fig. 1 is a view showing direct effect of glycyrrhizin on HIV induced plaque forming activity in MT-4 cells. Results are the mean of two experiments each performed in triplicate. • Fig. 2 is a view showing inhibition of cytopathic effect of HIV on MT-4 cells by glycyrrhizin. […] Data are from a single experiment, representative of four separate experiments. […] The viable cells were detected by trypan blue exclusion staining method.

herpes simplex virus [11] = conditions: human embryonic fibroblast; cited from earlier work
HIV [12] = assay: Cell fusion of HIV infected clone No.8 cells of Molt-4; type: cell-based; conditions: 1 mg/ml, day 6 and 9
HIV [13] = assay: Reverse transcriptase activity in culture fluids of HIV infected clone No.8 cells of Molt-4; type: cell-based; conditions: 1 mg/ml
herpes simplex virus [14] = conditions: cited from earlier work
VSV = conditions: cited from earlier work

Cc1cn([C@H]2C[C@H](N=[N+]=[N-])[C@@H](COP(=O)(O)OP(=O)(O)OP(=O)(O)O)O2)c(=O)[nH]c1=O [3' -azido-TIP, 3'-azido-3'-deoxythymidine triphosphate]
inhibition of reverse transcriptase activity (reverse transcriptase; 0.005 mg/ml): 97%

CC1(C)[C@@H](O[C@H]2O[C@H](C(=O)O)[C@@H](O)[C@H](O)[C@H]2O[C@@H]2O[C@H](C(=O)O)[C@@H](O)[C@H](O)[C@H]2O)CC[C@]2(C)[C@H]3C(=O)C=C4[C@@H]5C[C@@](C)(C(=O)O)CC[C@]5(C)CC[C@@]4(C)[C@]3(C)CC[C@@H]12 [glycyrrhizin]
number of HIV (HIV [1]; on day 3): 500< pfu/ml | number of HIV (HIV [1]; on day 6): 500< pfu/ml | number of HIV (HIV [1]; on day 9): 1000 pfu/ml | reduction of HIV induced plaque forming activity in MT-4 cells (HIV [2]; 0.01 mg/ml in plaque assay medium): about 10% | suppression of plaque formation (HIV [2]; 0.05 mg/ml in agarose overlay medium, MT-4 cells): 34.2% | inhibition of plaque formation (HIV [2]; 0.5 mg/ml, MT-4 cells): completely inhibited | inhibition of plaque formation (HIV [2]; 1 mg/ml, MT-4 cells): completely inhibited | selectivity index (the ratio on the ID50 for host cell DNA synthesis to the average ID50 for HIV) (HIV [2]; MT-4 cells): 17.2 | ID50 (plaque formation of HIV) (HIV [2]; MT-4 cells, Fig.1): 125 µg/mL | IF posivive cells (HIV [3]; on day 6): 7.1% | IF positive cells (HIV [3]; on day 9): 5.8% | ID50 on PHA response ([4]; PHA): 2100 µg/mL (≈ 2550 µM) | ID50 on concanavalin A response ([4]; concanavalin A): 2000 µg/mL (≈ 2430 µM) | ID50 against Varicella-Zoster virus (Varicella-Zoster virus): 580 µg/mL (≈ 705 µM) | inhibition of reverse transcriptase activity of HIV (in words) (reverse transcriptase; even at 10 mg/ml): did not inhibit | inactivation of HIV particles (HIV particles): did not inactivate | viability (HIV [5]; on day 3): 91.4% | viable cells (HIV [5]; on day 3): 1.5e+06 mL⁻¹ | viability (HIV [5]; on day 6): 83.4% | viable cells (HIV [5]; on day 6): 3.4e+06 mL⁻¹ | viability (HIV [5]; on day 9): 84.4% | viable cells (HIV [5]; on day 9): 7.57e+06 mL⁻¹ | growth inhibition of infected cultures as compared with the uninfected MT-4 cells (HIV [6]; 0.25 mg/ml): not significant | growth inhibition of infected cultures as compared with the uninfected MT-4 cells (HIV [6]; 0.5 mg/ml): not significant | growth inhibition of infected cultures as compared with the uninfected MT-4 cells (HIV [6]; 1 mg/ml): not significant | ID50 for DNA synthesis of uninfected MT-4 cells (MT-4 cells [7]): 2150 µg/mL | LD5o (Acute toxicity, mouse; Intravenous injection 2 % aqueous solution (mouse)): 682.5 mg/kg | LD5o (Acute toxicity, mouse; Subcutaneous injection 5 % aqueous solution (mouse)): 1873.3 mg/kg | LD5o [8]: 225 to 244 mL/kg | percentage of IF-positive cells (HIV [9]; 0.005 mg/ml): 70.9 | percentage of IF-positive cells (HIV [9]; 0.05 mg/ml): 69.3 | expression of HIV-specific antigen (in words) (HIV [9]; 0.25 mg/ml): significant inhibition | percentage of IF-positive cells (HIV [9]; 0.25 mg/ml): 23.3 | expression of HIV-specific antigen (in words) (HIV [9]; 0.5 mg/ml): almost completely suppressed | percentage of IF-positive cells (HIV [9]; 0.5 mg/ml): 1.0 | expression of HIV-specific antigen (in words) (HIV [9]; 1 mg/ml): almost completely suppressed | percentage of IF-positive cells (HIV [9]; 1 mg/ml): 0.6 | LD5o (Acute toxicity, rat): 3000 mg/kg | growth inhibition (MT-4 cells [10]): 50% | ID50 against herpes simplex virus (herpes simplex virus [11]): 600 µg/mL (≈ 729 µM) | fusion on clone No.8 cells of Molt-4 (HIV [12]): did not occur | RT (HIV [13]; on day 3, CPM per 10^4 viable cells): 1536 cpm | RT (HIV [13]; on day 6, CPM per 10^4 viable cells): 5369 cpm | RT (HIV [13]; on day 9, CPM per 10^4 viable cells): 4369 cpm

CC1(C)[C@@H](O)CC[C@]2(C)[C@H]3C(=O)C=C4[C@@H]5C[C@@](C)(C(=O)O)CC[C@]5(C)CC[C@@]4(C)[C@]3(C)CC[C@@H]12 [glycyrrhetinic acid]
replication of herpes simplex virus (herpes simplex virus [14]): suppress the replication | inactivation of virus particles (herpes simplex virus [14]; herpes simplex virus incubated with compound for 30 min): inactivates the virus particles | inactivation of virus particles (VSV; VSV incubated with compound for 30 min): inactivates the virus particles | replication of VSV (VSV): suppress the replication
